The values below come from PubChem BioAssay (NCI).

Test systems include HCT-116 colon; HOP-62 NSCLC; HT29 colon; KM12 colon; M14 melanoma; MDA-MB-231 breast; MOLT-4 leukemia; OVCAR-3 ovarian; OVCAR-4 ovarian; U251 CNS.
What all share (test): growth of human tumour cells (NCI), 48 h

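How tested: cells in 96-well plates exposed to compound for 48 hours at five concentrations. GI50: concentration for 50% inhibition of growth. Definition used: TGI = concentration required for complete inhibition of growth.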

With `COc1cc(OC)c2sc(-c3ccc(-n4cncc4-c4cc(OC)c(OC)c(OC)c4)cc3)nc2c1`, the GI50 in the test with HCT-116 colon is 3920 nM; in the test with HOP-62 NSCLC, 75.9 µM; in the test on HT29 colon, 4880 nM; in the test with KM12 colon, 4620 nM; in the test with M14 melanoma it was 7.91 µM; in the test on MDA-MB-231 breast, 3510 nM. Also, the GI50 in the test with MOLT-4 leukemia was 4240 nM; in the test on OVCAR-3 ovarian it was 3260 nM; with OVCAR-4 ovarian, 3250 nM; in the test with U251 CNS it was 4150 nM. Further, the TGI in the test on HCT-116 colon, in the test on HOP-62 NSCLC, in the test on HT29 colon, in the test on KM12 colon, with M14 melanoma and with MDA-MB-231 breast was greater than 100 µM each time. The TGI with MOLT-4 leukemia, with OVCAR-3 ovarian, in the test with OVCAR-4 ovarian and in the test with U251 CNS was greater than 100 µM throughout.

Regarding `COc1ccc(-c2cc(Nc3ccnc(N4CCOCC4)n3)on2)cc1`, the GI50 in the test with HCT-116 colon was 81 nM; with HOP-62 NSCLC it was 0.372 µM; in the test on HT29 colon, 243 nM; in the test on KM12 colon, 89.3 nM; in the test on M14 melanoma it was 0.0957 µM; in the test on MDA-MB-231 breast, 339 nM. Besides, the GI50 was 766 nM with MOLT-4 leukemia, 72.8 nM in the test with OVCAR-3 ovarian, 1720 nM in the test with OVCAR-4 ovarian and 329 nM with U251 CNS. The TGI in the test on HCT-116 colon is 13 µM; with HOP-62 NSCLC, 16.8 µM; in the test on HT29 colon, 11.5 µM; with KM12 colon it was 12.3 µM; in the test on M14 melanoma it was 14.8 µM; with MDA-MB-231 breast, 22.5 µM. For the same molecule, the TGI came out at 25.5 µM in the test on MOLT-4 leukemia, 2.66 µM in the test on OVCAR-3 ovarian, 18.5 µM in the test on OVCAR-4 ovarian and 12.7 µM in the test on U251 CNS.

Consider `c1ccc(NCCSc2nc3ccccc3s2)cc1`, for which the TGI in the test on HCT-116 colon, with HOP-62 NSCLC, in the test on HT29 colon, with KM12 colon, in the test with M14 melanoma and in the test on MDA-MB-231 breast was greater than 100 µM throughout. In addition, the TGI was 82.4 µM with MOLT-4 leukemia, greater than 100 µM in the test with OVCAR-3 ovarian, greater than 100 µM in the test with OVCAR-4 ovarian and greater than 100 µM in the test with U251 CNS.
